Legend:
[1] = molecular target: T1, Adrenergic receptor alpha-1 (Rattus norvegicus, UniProt P15823+P23944+P43140); experiment: Antagonistic activity against postsynaptic Alpha-1 adrenergic receptor in isolated rat vas deferens using (-)-phenylephrine as agonist; assay type: functional, tissue-based
T1 sequence (P15823 whole entry): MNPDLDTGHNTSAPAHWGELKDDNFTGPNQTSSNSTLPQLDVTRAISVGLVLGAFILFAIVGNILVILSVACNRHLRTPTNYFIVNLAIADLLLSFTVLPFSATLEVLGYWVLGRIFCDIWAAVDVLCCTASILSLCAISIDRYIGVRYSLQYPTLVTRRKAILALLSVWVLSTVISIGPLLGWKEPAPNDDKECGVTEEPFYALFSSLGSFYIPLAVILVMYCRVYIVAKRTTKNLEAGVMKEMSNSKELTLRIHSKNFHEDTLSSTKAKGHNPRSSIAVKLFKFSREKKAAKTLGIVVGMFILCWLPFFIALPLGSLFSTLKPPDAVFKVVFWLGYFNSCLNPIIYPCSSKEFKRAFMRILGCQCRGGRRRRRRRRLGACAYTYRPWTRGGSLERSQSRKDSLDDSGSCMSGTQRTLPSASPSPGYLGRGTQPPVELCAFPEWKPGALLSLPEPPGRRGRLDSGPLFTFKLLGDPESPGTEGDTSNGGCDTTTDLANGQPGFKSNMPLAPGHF
T1 sequence (P23944 whole entry): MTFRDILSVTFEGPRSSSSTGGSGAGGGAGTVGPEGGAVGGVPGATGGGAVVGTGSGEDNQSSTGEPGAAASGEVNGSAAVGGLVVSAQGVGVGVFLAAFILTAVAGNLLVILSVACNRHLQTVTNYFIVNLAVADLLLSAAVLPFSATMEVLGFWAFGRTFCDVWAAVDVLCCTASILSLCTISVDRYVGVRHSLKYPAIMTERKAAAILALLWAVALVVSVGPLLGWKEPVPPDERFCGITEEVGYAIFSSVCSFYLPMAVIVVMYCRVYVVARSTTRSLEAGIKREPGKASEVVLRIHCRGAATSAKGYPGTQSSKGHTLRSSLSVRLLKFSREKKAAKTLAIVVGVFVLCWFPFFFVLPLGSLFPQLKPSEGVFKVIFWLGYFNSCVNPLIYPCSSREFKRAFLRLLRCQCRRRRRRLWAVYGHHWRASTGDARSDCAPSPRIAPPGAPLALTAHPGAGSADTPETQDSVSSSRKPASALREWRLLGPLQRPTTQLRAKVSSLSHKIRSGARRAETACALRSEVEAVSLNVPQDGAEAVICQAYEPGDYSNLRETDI
T1 sequence (P43140 whole entry): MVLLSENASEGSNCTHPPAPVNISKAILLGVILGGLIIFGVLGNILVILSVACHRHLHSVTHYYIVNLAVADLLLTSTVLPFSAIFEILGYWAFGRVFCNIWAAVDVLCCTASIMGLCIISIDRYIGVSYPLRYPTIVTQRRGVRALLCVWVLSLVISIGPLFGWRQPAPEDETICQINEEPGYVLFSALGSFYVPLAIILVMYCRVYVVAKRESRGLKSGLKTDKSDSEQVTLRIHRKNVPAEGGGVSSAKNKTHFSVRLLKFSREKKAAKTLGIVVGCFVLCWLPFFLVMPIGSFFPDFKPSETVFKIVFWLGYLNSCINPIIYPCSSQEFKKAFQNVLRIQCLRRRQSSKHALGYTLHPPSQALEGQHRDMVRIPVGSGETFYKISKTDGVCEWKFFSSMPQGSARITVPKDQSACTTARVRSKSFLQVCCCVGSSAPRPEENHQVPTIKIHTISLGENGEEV

[2] = molecular target: T2, Adrenergic receptor alpha-2 (Rattus norvegicus, UniProt P22086+P19328+P22909); experiment: Antagonistic activity against presynaptic alpha-2 adrenergic receptor in isolated rat vas deferens using xylazine as agonist; assay type: functional, tissue-based
T2 sequence (P22086 whole entry): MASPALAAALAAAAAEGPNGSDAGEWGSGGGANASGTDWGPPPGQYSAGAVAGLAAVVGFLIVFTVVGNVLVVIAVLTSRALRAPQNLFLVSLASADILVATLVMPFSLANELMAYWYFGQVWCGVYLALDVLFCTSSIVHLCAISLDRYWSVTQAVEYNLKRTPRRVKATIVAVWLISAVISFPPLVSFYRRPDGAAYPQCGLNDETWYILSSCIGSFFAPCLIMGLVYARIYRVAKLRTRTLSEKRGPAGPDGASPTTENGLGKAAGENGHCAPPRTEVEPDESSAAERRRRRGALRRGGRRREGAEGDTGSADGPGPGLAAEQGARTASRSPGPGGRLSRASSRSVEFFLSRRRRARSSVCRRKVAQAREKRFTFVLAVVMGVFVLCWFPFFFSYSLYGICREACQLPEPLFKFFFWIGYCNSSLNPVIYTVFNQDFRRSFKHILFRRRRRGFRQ
T2 sequence (P19328 whole entry): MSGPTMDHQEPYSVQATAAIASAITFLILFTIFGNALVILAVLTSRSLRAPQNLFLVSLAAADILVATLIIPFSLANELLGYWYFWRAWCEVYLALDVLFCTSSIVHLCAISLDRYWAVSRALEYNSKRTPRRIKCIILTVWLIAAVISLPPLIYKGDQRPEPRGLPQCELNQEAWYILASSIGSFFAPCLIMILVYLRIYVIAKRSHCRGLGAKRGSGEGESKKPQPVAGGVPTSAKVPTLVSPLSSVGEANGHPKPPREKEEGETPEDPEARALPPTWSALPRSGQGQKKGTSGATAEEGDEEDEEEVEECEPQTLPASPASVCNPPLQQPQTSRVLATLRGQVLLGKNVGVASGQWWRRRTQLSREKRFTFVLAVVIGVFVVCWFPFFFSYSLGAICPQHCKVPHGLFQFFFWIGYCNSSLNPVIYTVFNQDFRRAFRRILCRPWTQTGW
T2 sequence (P22909 whole entry): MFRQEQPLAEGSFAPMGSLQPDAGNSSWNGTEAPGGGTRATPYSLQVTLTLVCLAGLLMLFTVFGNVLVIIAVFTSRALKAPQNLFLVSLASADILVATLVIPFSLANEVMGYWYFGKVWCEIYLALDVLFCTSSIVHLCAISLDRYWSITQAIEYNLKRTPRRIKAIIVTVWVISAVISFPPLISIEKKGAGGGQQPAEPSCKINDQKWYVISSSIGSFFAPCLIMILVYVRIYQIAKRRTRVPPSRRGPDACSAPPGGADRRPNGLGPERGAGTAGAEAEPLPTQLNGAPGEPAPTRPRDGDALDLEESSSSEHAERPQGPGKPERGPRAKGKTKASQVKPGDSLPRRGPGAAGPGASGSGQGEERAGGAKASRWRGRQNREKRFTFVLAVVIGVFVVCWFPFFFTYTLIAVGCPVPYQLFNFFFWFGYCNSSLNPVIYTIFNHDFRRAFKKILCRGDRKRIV

[3] = molecular target: Adrenergic receptor alpha-2 (Cavia porcellus); experiment: Antagonistic activity against adrenergic alpha-2 receptor in longitudinal muscle strip of the guinea pig ileum using l-norepinephrine as agonist

| Compound | pA2 [1] | pA2 [2] | pA2 [3] |
| --- | --- | --- | --- |
| OC[C@@H]1C[C@@H]2CN3CCc4cc5c(cc4[C@@H]3C[C@@H]2C[C@@H]1O)OCO5 | < 4 |  |  |
| Oc1cc2c(cc1O)[C@@H]1C[C@@H]3C[C@H](O)CC[C@@H]3CN1CC2 | < 4 | 5.74 |  |
| CCOC(=O)[C@H]1[C@H]2C[C@H]3c4cc5c(cc4CCN3C[C@H]2CC[C@H]1O)OCO5 | 5.51 |  |  |
| OC[C@@H]1[C@H]2C[C@H]3c4cc5c(cc4CCN3C[C@@H]2CC[C@H]1O)OCO5 | 5.25 |  |  |
| CCOc1cc2c(cc1OCC)[C@@H]1C[C@@H]3C[C@H](O)CCC3CN1CC2 (stereo partly specified) | < 4 | 6.41 |  |
| CC(=O)O[C@@H]1CC[C@@H]2CN3CCc4cc5c(cc4[C@@H]3C[C@@H]2C1)OCO5 | 4.55 | 7.3 | 8.21 |
| COc1cc2c(cc1OC)[C@@H]1C[C@@H]3C[C@H](O)CC[C@@H]3CN1CC2 | < 4 | 6.31 | < 4 |
| COC(=O)[C@@H]1C[C@@H]2CN3CCc4cc5c(cc4[C@@H]3C[C@@H]2C[C@@H]1O)OCO5 | 4.8 |  |  |
| COc1cc2c(cc1OC)[C@@H]1C[C@@H]3C[C@H](OC(C)=O)CC[C@@H]3CN1CC2 | 4.54 | 6.61 | 6.19 |
| COC(=O)[C@H]1C[C@H]2CN3CCc4cc5c(cc4[C@@H]3C[C@@H]2C[C@@H]1O)OCO5 | 5.98 |  |  |
| N#C[C@@H]1C[C@@H]2CN3CCc4cc5c(cc4[C@@H]3C[C@@H]2C[C@@H]1O)OCO5 | < 4 | 6.1 | 6.67 |

Reference: ChEMBL document CHEMBL1123932, “Berbanes: a new class of selective alpha 2-adrenoceptor antagonists” (J Med Chem, 1987)
